Inconclusive results and toxic doses are left out.
Test system: L1210 leukemia ip in BDF1 mice, survival T/C
Test: NCI In Vivo Anticancer Drug Screen. Data for tumor model L1210 Leukemia (intraperitoneal) in B6D2F1 (BDF1) mice
Details: endpoint: mean survival time, higher = longer survival
Procedure, shortened: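 Value reflects the ratio of survival in compound-treated mice to survival in vehicle-treated controls, with both groups carrying the same transplanted tumor.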

[1] = dose: 100.0 mg/kg/injection, schedule: Q04DX002 (ip), vehicle: saline with Tween-80
[2] = dose: 100.0 mg/kg/injection, schedule: Q01DX009 (ip), vehicle: Klucel (hydroxypropylcellulose) (HPC)
[3] = dose: 100.0 mg/kg/injection, schedule: Q04DX003 (ip), vehicle: Klucel (hydroxypropylcellulose) (HPC)
[4] = dose: 200.0 mg/kg/injection, schedule: Q01DX009 (ip), vehicle: Klucel (hydroxypropylcellulose) (HPC)
[5] = dose: 200.0 mg/kg/injection, schedule: Q04DX003 (ip), vehicle: Klucel (hydroxypropylcellulose) (HPC)
[6] = dose: 400.0 mg/kg/injection, schedule: Q01DX009 (ip), vehicle: Klucel (hydroxypropylcellulose) (HPC)
[7] = dose: 400.0 mg/kg/injection, schedule: Q04DX003 (ip), vehicle: Klucel (hydroxypropylcellulose) (HPC)
[8] = dose: 200.0 mg/kg/injection, schedule: Q04DX002 (ip), vehicle: saline with Tween-80
[9] = dose: 400.0 mg/kg/injection, schedule: Q04DX002 (ip), vehicle: saline with Tween-80
[10] = dose: 100.0 mg/kg/injection, schedule: Q04DX003 (ip), vehicle: saline with Tween-80
[11] = dose: 200.0 mg/kg/injection, schedule: Q04DX003 (ip), vehicle: saline with Tween-80
[12] = dose: 400.0 mg/kg/injection, schedule: Q04DX003 (ip), vehicle: saline with Tween-80

Structure (SMILES): COc1ccc(C2CCCN(C)O2)cc1 (stereo not drawn)
- T/C (dose: 100.0 mg/kg/injection, schedule: Q01DX001 (ip), vehicle: acetone): 102 % of control
- T/C (dose: 200.0 mg/kg/injection, schedule: Q01DX001 (ip), vehicle: acetone): 91 % of control
- T/C (dose: 400.0 mg/kg/injection, schedule: Q01DX001 (ip), vehicle: acetone): 98 % of control

Structure (SMILES): N=c1c2c(N)nc(N)nc2c2ccccc2n1O
- T/C (dose: 50.0 mg/kg/injection, schedule: Q04DX002 (ip), vehicle: saline): 97 % of control
- T/C (dose: 100.0 mg/kg/injection, schedule: Q04DX002 (ip), vehicle: saline): 104 % of control
- T/C (dose: 200.0 mg/kg/injection, schedule: Q04DX002 (ip), vehicle: saline): 101 % of control

Structure (SMILES): NC1(N)Sc2nc3ccccc3nc2S1
- T/C [1]: 101 % of control

Structure (SMILES): NC(=O)CCc1cnc2ccccc2n1
- T/C [2]: 89 % of control
- T/C [3]: 106 % of control
- T/C [4]: 95 % of control
- T/C [5]: 106 % of control
- T/C [6]: 90 % of control
- T/C [7]: 97 % of control

Structure (SMILES): CC(C)CC(CC(C)C)NCCO
- T/C (dose: 75.0 mg/kg/injection, schedule: Q01DX001 (ip), vehicle: acid diluted with saline): 103 % of control

Structure (SMILES): Cc1cc(C)c2c(SC(C)C)nc(N)nc2n1
- T/C (dose: 100.0 mg/kg/injection, schedule: Q01DX Z (ip), vehicle: methylcellulose (MC)): 95 % of control
- T/C (dose: 200.0 mg/kg/injection, schedule: Q01DX Z (ip), vehicle: methylcellulose (MC)): 97 % of control

Structure (SMILES): CC(C1CCCC1)C1CCCC1
- T/C [1]: 96 % of control
- T/C [8]: 90 % of control
- T/C [9]: 109 % of control

Structure (SMILES): CN(C)S(=O)(=O)c1ccc(CCc2ccccc2)cc1
- T/C (dose: 50.0 mg/kg/injection, schedule: Q01DX001 (ip), vehicle: saline): 101 % of control
- T/C (dose: 100.0 mg/kg/injection, schedule: Q01DX001 (ip), vehicle: saline): 95 % of control
- T/C (dose: 200.0 mg/kg/injection, schedule: Q01DX001 (ip), vehicle: saline): 95 % of control
- T/C (dose: 400.0 mg/kg/injection, schedule: Q01DX001 (ip), vehicle: saline): 95 % of control

Structure (SMILES): CCCCCCC(/C=N\Nc1nnc(N/N=C\C(=C\c2ccccc2)CCCCCC)c2ccccc12)=C/c1ccccc1
- T/C (dose: 50.0 mg/kg/injection, schedule: Q01DX001 (ip), vehicle: other): 109 % of control
- T/C (dose: 100.0 mg/kg/injection, schedule: Q01DX001 (ip), vehicle: other): 103 % of control
- T/C (dose: 200.0 mg/kg/injection, schedule: Q01DX001 (ip), vehicle: other): 111 % of control
- T/C (dose: 400.0 mg/kg/injection, schedule: Q01DX001 (ip), vehicle: other): 105 % of control

Structure (SMILES): CN(Cc1cnc2nc(N)nc(N)c2n1)c1ccc(C(=O)NC(CCC(=O)O)C(=O)O)cc1I (stereo not drawn)
- T/C (dose: 2.5 mg/kg/injection, schedule: Q01DX009 (ip), vehicle: sodium bicarbonate): 176 % of control
- T/C (dose: 5.0 mg/kg/injection, schedule: Q01DX009 (ip), vehicle: sodium bicarbonate): 175 % of control
- T/C (dose: 10.0 mg/kg/injection, schedule: Q01DX009 (ip), vehicle: sodium bicarbonate): 104 % of control

Structure (SMILES): CCOC(=O)C(COS(=O)(=O)c1ccc(C)cc1)(COS(=O)(=O)c1ccc(C)cc1)C(=O)OCC
- T/C (dose: 100.0 mg/kg/injection, schedule: Q01DX009 (ip), vehicle: saline): 92 % of control
- T/C [3]: 97 % of control
- T/C (dose: 200.0 mg/kg/injection, schedule: Q01DX009 (ip), vehicle: saline): 94 % of control
- T/C [5]: 93 % of control
- T/C [7]: 93 % of control

Structure (SMILES): O=C(O)c1ccccc1NC(C(=O)O)c1ccccc1 (stereo not drawn)
- T/C [1]: 100 % of control
- T/C [8]: 96 % of control
- T/C [9]: 96 % of control

Structure (SMILES): Fc1ccc(-c2n[nH]c3c2CCCc2ccccc2-3)cc1
- T/C [10]: 113 % of control
- T/C [11]: 111 % of control
- T/C [12]: 102 % of control

Structure (SMILES): CC(C)NC(=O)C1C2CCC(CC2)C1C(=O)NC(C)C (stereo not drawn)
- T/C [10]: 96 % of control
- T/C [11]: 86 % of control
- T/C [12]: 86 % of control

Structure (SMILES): NC(=O)c1ccccc1NC(=O)COc1ccc(Cl)cc1
- T/C [2]: 95 % of control
- T/C [3]: 97 % of control
- T/C [4]: 92 % of control
- T/C [5]: 98 % of control
- T/C [6]: 97 % of control
- T/C [7]: 106 % of control

Structure (SMILES): O=C(NC/C(Br)=C/Br)Oc1cccc2c1CCCC2
- T/C (dose: 100.0 mg/kg/injection, schedule: Q04DX002 (ip), vehicle: other): 94 % of control
- T/C (dose: 200.0 mg/kg/injection, schedule: Q04DX002 (ip), vehicle: other): 94 % of control
- T/C (dose: 400.0 mg/kg/injection, schedule: Q04DX002 (ip), vehicle: other): 91 % of control

From PubChem BioAssay AID248 (DTP/NCI, 2004)
